Each structure is given as a SMILES string. pKi: −log10 of the molar value.

Experimental findings from patent US20110082130A1 (LIGAND PHARMACEUTICALS, INC., priority 2006, published 2011) are described below.

The first test deals with T1, chimeric human H3 receptor (Homo sapiens, UniProt Q9Y5N1).
T1 construct: made in house; host or cells: Sf9 insect cells (baculovirus); P2 membrane preparation
T1 sequence (Q9Y5N1 with tags, fused parts or gaps): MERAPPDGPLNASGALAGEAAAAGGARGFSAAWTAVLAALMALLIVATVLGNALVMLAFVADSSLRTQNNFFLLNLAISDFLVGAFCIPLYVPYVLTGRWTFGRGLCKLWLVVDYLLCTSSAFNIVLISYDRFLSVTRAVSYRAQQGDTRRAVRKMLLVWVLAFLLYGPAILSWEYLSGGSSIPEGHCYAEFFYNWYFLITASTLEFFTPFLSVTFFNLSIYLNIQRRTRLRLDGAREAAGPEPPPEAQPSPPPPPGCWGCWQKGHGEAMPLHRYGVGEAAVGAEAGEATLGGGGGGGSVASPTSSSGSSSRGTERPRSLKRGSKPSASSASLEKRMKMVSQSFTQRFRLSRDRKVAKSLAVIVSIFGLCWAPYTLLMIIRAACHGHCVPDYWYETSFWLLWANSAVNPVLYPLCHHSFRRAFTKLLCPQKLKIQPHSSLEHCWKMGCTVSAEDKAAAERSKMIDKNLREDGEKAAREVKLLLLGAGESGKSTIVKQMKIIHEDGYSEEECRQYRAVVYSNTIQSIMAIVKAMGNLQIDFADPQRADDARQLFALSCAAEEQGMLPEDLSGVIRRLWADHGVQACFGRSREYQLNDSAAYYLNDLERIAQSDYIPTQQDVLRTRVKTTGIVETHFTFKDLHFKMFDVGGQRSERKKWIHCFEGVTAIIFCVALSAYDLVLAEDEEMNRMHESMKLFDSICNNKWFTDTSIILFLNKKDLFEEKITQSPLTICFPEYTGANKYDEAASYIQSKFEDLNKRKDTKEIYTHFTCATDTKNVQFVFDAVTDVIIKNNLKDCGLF
The test can be described thus: Chimeric human H3 receptor GTP binding assay (agonist-stimulated GTP-gamma35S binding, Example 7). It counts as biochemical. The note with it: Table II "Ki", symbol *; assay of Example 7. In a few lines:
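Sf9 membranes co-expressing chimeric human H3 receptor and heterotrimeric G-protein, 35 μg/tube, in pH 7.4 Tris buffer with 10 μM GDP. Test compounds (10^−10–10^−6 M) competed against 1 μM histamine, […] GTP-gamma35S, 60 min at room temperature. Filter-bound radioactivity counted; IC50 converted to Ki by Cheng-Prusoff. Agonism/inverse agonism tested without histamine (EC50).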
(In general: GTPγS resists hydrolysis and so accumulates on activated G proteins.)
For `Cc1ccnc(-c2ccc3c(c2)CCN(CC(=O)N2CCN(C4CCC4)CC2)C3)c1` [Compound 630, 2-[2-(4-cyclobutylpiperazin-1-yl)-2-oxoethyl]-6-(4-methylpyridin-2-yl)-1,2,3,4-tetrahydroisoquinoline], the pKi – broadly, −log10 of the Ki, conventionally taken in molar units – was more than 6.00.

For `COc1ccc(-c2ccc3c(c2)CCN(CC(=O)N2CCN(C4CCCC4)CC2)C3)cc1OC` [Compound 525, 2-[2-(4-cyclopentylpiperazin-1-yl)-2-oxoethyl]-6-(3.4-dimethoxyphenyl)-1,2,3,4-tetrahydroisoquinoline], the pKi was more than 6.00.

As to `COc1ccc(-c2ccc3c(c2)CCN(CC(=O)N2CCN(C4CCC4)CC2)C3)cc1OC` [Compound 524, 2-[2-(4-cyclobutylpiperazin-1-yl)-2-oxoethyl]-6-(3,4-dimethoxyphenyl)-1,2,3,4-tetrahydroisoquinoline], the pKi was more than 6.00.

In the case of `CC1CCCC1N1CCN(C(=O)CN2CCc3cc(-c4cncnc4)ccc3C2)C[C@@H]1C` (stereo partly drawn) [Compound 614, 2-{2-[(3S)-3-methyl-4-(2-methylcyclopentyl)piperazin-1-yl]-2-oxoethyl}-6-pyrimidin-5-yl-1,2,3,4-tetrahydroisoquinoline], the pKi is more than 6.00.

Consider `N#Cc1ccccc1-c1ccc2c(c1)CCN(CC(=O)N1CCN(C3CCC3)CC1)C2` [Compound 627, 2-{2-[2-(4-cyclobutylpiperazin-1-yl)-2-oxoethyl]-1,2,3,4-tetrahydroisoquinolin-6-yl}benzonitrile], for which the pKi was more than 6.00.

Take `COCCC1CCCN(c2ccc3c(n2)CCN(CC(=O)N2CCN(C4CCC4)CC2)C3)C1` (centres unmarked) [Compound 674, 6-[2-(4-cyclobutylpiperazin-1-yl)-2-oxoethyl]-2-[3-(2-methoxyethyl)piperidin-1-yl]-5,6,7,8-tetrahydro-1,6-naphthyridine]: the pKi is more than 6.00.

Regarding `CC(C)CNc1ccc2c(n1)CCN(CC(=O)N1CCN(C3CCC3)CC1)C2` [Compound 651, 6-[2-(4-cyclobutylpiperazin-1-yl)-2-oxoethyl]-N-isobutyl-5,6,7,8-tetrahydro-1,6-naphthyridin-2-amine], the pKi was more than 6.00.

Turning to `O=C(CN1CCc2cc(-c3ccc(C(F)(F)F)nc3)ccc2C1)N1CCN(C2CCC2)CC1` [Compound 648, 2-[2-(4-cyclobutylpiperazin-1-yl)-2-oxoethyl]-6-[6-(trifluoromethyl)pyridin-3-yl]-1,2,3,4-tetrahydroisoquinoline], the negative logarithm of the Ki (pKi) is more than 6.00.

`COc1ccc(-c2ccc3c(c2)CCN(CC(=O)N2CCN(C4CCC4)CC2)C3)cc1C` [Compound 540, 2-[2-(4-cyclobutylpiperazin-1-yl)-2-oxoethyl]-6-(4-methoxy-3-methylphenyl)-1,2,3,4-tetrahydroisoquinoline]: the pKi was more than 6.00.

Staying with this test, now noted: Table II; "*" = Ki in assay of Example 7 less than 1 micromolar.
For the compound `O=C(CN1CCc2nc(Br)sc2C1)N1CCN(C2CCC2)CC1` [Compound 97, 2-bromo-5-[2-(4-cyclobutylpiperazin-1-yl)-2-oxoethyl]-4,5,6,7-tetrahydro[1,3]thiazolo [5,4-c]pyridine], the pKi is more than 6.00.

Take `CC1CN(C(=O)CN2CCc3nc(-c4nccs4)sc3C2)CCN1C1CCC1` (centres unmarked) [Compound 115, 5-[2-(4-cyclobutyl-3-methylpiperazin-1-yl)-2-oxoethyl]-2-(1,3-thiazol-2-yl)-4,5,6,7-tetrahydro[1,3]thiazolo [5,4-c]pyridine]: the pKi is more than 6.00.

As for `CC(=O)c1nc2c(s1)CN(CC(=O)N1CCN(C3CCC3)CC1)CC2` [Compound 103, 1-{5-[2-(4-cyclobutylpiperazin-1-yl)-2-oxoethyl]-4,5,6,7-tetrahydro[1,3]thiazolo [5,4-c]pyridin-2-yl}ethanone], the negative logarithm of the Ki (pKi) was more than 6.00.

For the compound `O=C(CN1CCc2cc(-c3cccc(F)c3)nnc2C1)N1CCN(C2CCC2)CC1` [Compound 233, 7-[2-(4-cyclobutylpiperazin-1-yl)-2-oxoethyl]-3-(3-fluorophenyl)-5,6,7,8-tetrahydropyrido[3,4-c]pyridazine], the pKi was more than 6.00.

As for `CC1CN(C(=O)CN2CCc3nc(-c4cncnc4)sc3C2)CCN1C1CCC1` (centres unmarked) [Compound 111, 5-[2-(4-cyclobutyl-3-methylpiperazin-1-yl)-2-oxoethyl]-2-pyrimidin-5-yl-4,5,6,7-tetrahydro[1,3] thiazolo [5,4-c]pyridine], the pKi was more than 6.00.

With `CCC(CC)N1CCN(C(=O)CN2CCc3cc(-c4cncnc4)ccc3C2)CC1` [Compound 145, 2-{2-[4-(1-ethylpropyl)piperazin-1-yl]-2-oxoethyl}-6-pyrimidin-5-yl-1,2,3,4-tetrahydroisoquinoline], the pKi is more than 6.00.

Take `CS(=O)(=O)c1cccc(-c2nc3c(s2)CN(CC(=O)N2CCN(C4CCC4)CC2)CC3)c1` [Compound 99, 5-[2-(4-cyclobutylpiperazin-1-yl)-2-oxoethyl]-2-[3-(methylsulfonyl)phenyl]-4,5,6,7-tetrahydro[1,3]thiazolo [5,4-c]pyridine]: the pKi is more than 6.00.

Regarding `O=C(CN1CCc2cc(-n3ncccc3=O)ccc2C1)N1CCN(C2CCC2)CC1` [Compound 193, 2-{2-[2-(4-cyclobutylpiperazin-1-yl)-2-oxoethyl]-1,2,3,4-tetrahydroisoquinolin-6-yl}pyridazin-3(2H)-one], the pKi was more than 6.00.

`Cc1ccc(-c2ccc3c(c2)CCN(CC(=O)N2CCN(C4CCCC4C)CC2)C3)nn1` (centres unmarked) [Compound 190, 2-{2-[4-(2-methylcyclopentyl)piperazin-1-yl]-2-oxoethyl}-6-(6-methylpyridazin-3-yl)-1,2,3,4-tetrahydroisoquinoline]: the pKi was more than 6.00.

Regarding `CC1CCC[C@H]2CN(C(=O)CN3CCc4nc(-c5cncnc5)sc4C3)CCN12` (stereo in doubt) [Compound 150, 6-methyl-2-[(2-pyrimidin-5-yl-6,7-dihydro[1,3]thiazolo [5,4-c]pyridin-5(4H)-yl)acetyl]octahydro-2H-pyrido[1,2-a]pyrazine], the pKi is more than 6.00.

Regarding `COc1ccc(-n2cc3c(n2)CCN(CC(=O)N2CCN(C4CCC4)CC2)C3)nn1` [Compound 199, 5-[2-(4-cyclobutylpiperazin-1-yl)-2-oxoethyl]-2-(6-methoxypyridazin-3-yl)-4,5,6,7-tetrahydro-2H-pyrazolo[4,3-c]pyridine], the pKi is more than 6.00.

For the compound `O=C(CN1CCc2nc(-c3cccnn3)sc2C1)N1CCN(C2CCC2)CC1` [Compound 279, 5-[2-(4-cyclobutylpiperazin-1-yl)-2-oxoethyl]-2-pyridazin-3-yl-4,5,6,7-tetrahydro[1,3]thiazolo [5,4-c]pyridine], the pKi is more than 6.00.

For the compound `O=C(CN1CCc2cc(N3CCCC3)nnc2C1)N1CCN(C2CCC2)CC1` [Compound 221, 7-[2-(4-cyclobutylpiperazin-1-yl)-2-oxoethyl]-3-pyrrolidin-1-yl-5,6,7,8-tetrahydropyrido[3,4-c]pyridazine], the pKi was more than 6.00.

In the case of `O=C(CN1CCc2cc(-c3nccs3)ccc2C1)N1CCN(C2CCC2)CC1` [Compound 120, 2-[2-(4-cyclobutylpiperazin-1-yl)-2-oxoethyl]-6-(1,3-thiazol-2-yl)-1,2,3,4-tetrahydroisoquinoline], the pKi is more than 6.00.

The test is the same for the next values; noted with them: assay of Example 7; "*" in Ki of Table II.
Take `O=C(CN1CCc2nc(-c3ccccc3C(F)(F)F)sc2C1)N1CCN(C2CCC2)CC1` [Compound 360, 5-[2-(4-cyclobutylpiperazin-1-yl)-2-oxoethyl]-2-[2-(trifluoromethyl)phenyl]-4,5,6,7-tetrahydro[1,3]thiazolo [5,4-c]pyridine]: the pKi was more than 6.00.

Consider `O=C(CN1CCc2nc(-c3ccccc3Cl)sc2C1)N1CCN(C2CCC2)CC1` [Compound 357, 2-(2-chlorophenyl)-5-[2-(4-cyclobutylpiperazin-1-yl)-2-oxoethyl]-4,5,6,7-tetrahydro[1,3]thiazolo [5,4-c]pyridine], for which the negative-log Ki (pKi) is more than 6.00.

As to `COc1ccc(-c2nc3c(s2)CN(CC(=O)N2CCN(C4CCC4)CC2)CC3)cc1F` [Compound 322, 5-[2-(4-cyclobutylpiperazin-1-yl)-2-oxoethyl]-2-(3-fluoro-4-methoxyphenyl)-4,5,6,7-tetrahydro[1,3]thiazolo [5,4-c]pyridine], the pKi was more than 6.00.

For the compound `CCOC(=O)c1cccc(-c2nc3c(s2)CN(CC(=O)N2CCN(C4CCC4)CC2)CC3)c1` [Compound 376, ethyl 3-{5-[2-(4-cyclobutylpiperazin-1-yl)-2-oxoethyl]-4,5,6,7-tetrahydro[1,3]thiazolo [5,4-c]pyridin-2-yl}benzoate], the pKi was more than 6.00.

For the compound `COc1ccc2cc(-c3nc4c(s3)CN(CC(=O)N3CCN(C5CCC5)CC3)CC4)ccc2c1` [Compound 324, 5-[2-(4-cyclobutylpiperazin-1-yl)-2-oxoethyl]-2-(6-methoxy-2-naphthyl)-4,5,6,7-tetrahydro[1,3]thiazolo [5,4-c]pyridine], the pKi is more than 6.00.

Turning to `CS(=O)(=O)c1ccc(-c2ccc3c(c2)CCN(CC(=O)N2CCN(C4CCCC4)CC2)C3)cc1` [Compound 390, 2-[2-(4-cyclopentylpiperazin-1-yl)-2-oxoethyl]-6-[4-(methylsulfonyl)phenyl]-1,2,3,4-tetrahydroisoquinoline], the pKi was more than 6.00.

Consider `COc1ccc(-n2ncc3c2CCN(CC(=O)N2CCN(C4CCC4)CC2)C3)nn1` [Compound 290, 5-[2-(4-cyclobutylpiperazin-1-yl)-2-oxoethyl]-1-(6-methoxypyridazin-3-yl)-4,5,6,7-tetrahydro-1H-pyrazolo[4,3-c]pyridine], for which the pKi is more than 6.00.

On to `O=C(CN1CCc2nc(-c3cccc(F)c3F)sc2C1)N1CCN(C2CCC2)CC1` [Compound 356, 5-[2-(4-cyclobutylpiperazin-1-yl)-2-oxoethyl]-2-(2,3-difluorophenyl)-4,5,6,7-tetrahydro[1,3]thiazolo [5,4-c]pyridine], for which the pKi was more than 6.00.

As for `CCC(C)N1CCN(C(=O)CN2CCc3cc(-c4cncnc4)ccc3C2)CC1` (centres unmarked) [Compound 397, 2-[2-(4-sec-butylpiperazin-1-yl)-2-oxoethyl]-6-pyrimidin-5-yl-1,2,3,4-tetrahydroisoquinoline], the pKi was more than 6.00.
